≈ marks a conversion by molar mass, not a printed value. Entries after “also recorded” stand apart in the source; their conditions may differ. Like-named read-outs stand apart in the source and are kept apart here.
How the values were obtained:
Amp. Resistant E. coli [1] = experiment: antibiotic susceptibility study in spiked whole blood on the chip; assay type: cell-based, Escherichia coli; details: 100, 50, 20 CFU/mL, 32 μg/mL Ampicilin, up to 150 minutes
Protocol: For the spiked human sample experiment, human whole blood was centrifuged in two steps first at 150 rcf for 10 minutes followed by 7000 rcf for 3 min. It was subsequently spiked with 100, 50 or 20 CFU/mL and mixed with a solution of resazurin to a final concentration of 0.01%. No antibiotics were added for the control aliquots, 32 μg/mL ampicillin was added for resistant aliquots and 16 μg/mL kanamycin was added for susceptible aliquots. The aliquots were incubated at 37° C. different periods starting from 0 minutes incubation till 150 minutes with a time step of 5 minutes.
FIGS. 12A-12B show the results of an antibiotic susceptibility study conducted using whole blood spiked with Amp. Resistant E. coli to a final concentration of 100, 50, 20 CFU/mL in the presence of 32 μg/mL Ampicilin. […] The mean Gvalue/Bvalue (a) can be a credible parameter to follow the sequence in the color change and translate it to a quantifiable data FIG. 12B. […] Quantifiably, the time in which the α-value undergoes a step levitation is corresponding to the time the color transition is visible to the naked eye.

[2] = system: Ampicillin resistant Escherichia coli strain; experiment: antibiotic susceptibility profiling by resazurin color change on the plasmonic microfluidic chip; assay type: cell-based; details: for increase in green value of the 1-hour incubated aliquots compared to the zero minute incubation aliquot: 100 μg/mL ampicillin, 37° C.; for constant green value throughout the 1-hour incubation: 50 μg/mL kanamycin
Protocol: Ampicillin resistant Escherichia coli strain (Amp resistant E. coli, #211540, Merlan scientific, Ontario, Canada) was cultured overnight at 37° C. in Luria broth (LB) media supplemented with 100 μg/mL Ampicillin (#216858, Merlan scientific, Ontario, Canada). Next, the bacterial concentration was determined by optical density technique using a Spectronic 21D spectrophotometer. Subsequently, aliquots of different concentrations were prepared for the antibiotic susceptibility testing experiments.
(§1) Resistant E. coli, MRSA, and Cipro. Resistant PA respectively was used. The aliquots were incubated at 37° C. for different periods of time starting from 0 minutes incubation to a 60 minutes with a time step of 5 minutes. For susceptible bacterial samples, aliquots of Amp resistant E. coli were prepared (5×10^5 CFU/mL, 10^3 CFU/mL, 10^2 CFU/mL, and 50 CFU/mL), MRSA (5×10^5 CFU/mL), and Cipro. Resistant PA (5×10^5 CFU/mL). […] Resistant E. coli, MRSA, and Cipro. Resistant PA respectively was used. The aliquots were incubated at 37° C. different periods starting from 0 minutes incubation till 60 minutes with a time step of 5 minutes.
(§2) To rapidly detect the sample color change on the platform the reflectance spectra was measured using a Lambda 750 UV/Vis/NIR Spectrophotometer (PerkinElmer). The incident and collected light beams had normal incidence to the platform. Further, optical imaging was performed under highly controlled environment using Nikon Eclipse LV150 (Nikon) with a ×100, 0.9 NA air objective and Nikon digital sight ds-fi1 CCD camera with a white reference of R:0.75 G:1.0 B:2.36.51.
(§3) The microfluidic chip used was similar to that illustrated in FIG. 1B, having two characteristic chambers 1) antibiotic infusing chamber (AI) 103 equipped with bacteria entrapping micropillars 104p; and 2) plasmonic color-sensitive chamber (PCS) 105. The operational procedure of the microfluidic chip was to inject the bacteria containing growth media along with an antibiotic of interest and 0.02% resazurin solution from the inlet to get mixed in the Al mixing and entrapment chamber. Microfluidic chips were incubated for one hour through time intervals of 5 minutes. After incubation, the liquid in the Al chamber 103 was pushed towards the PCS chamber 105 sensing chamber while the bacteria was entrapped behind the micropillars 104p.
To conveniently convert the microscopy results to the feasible CIE color gamut, each picture of the data set loaded to MATLAB was read as a 3 layer matrix, each pixel has 3 components, one per layer, corresponding to its R, G and B value. The processing involved image crop and a sample selection. A simple average calculation was run individually to get an overall value for R, G and B components for each of the 5 samples generated. Following that, the mean across the collection was calculated. The error bar was computed at 1 standard deviation.
All images were processed and analyzed through a MATLAB™ script which allowed the analysis of multiple images simultaneously. The TIFF files were loaded and cropped to 80% of their original dimensions to avoid the coffee-ring effect. An option for the manual crop was also available. For each image, five samples of 480×480 pixels were randomly selected. Subsequently, for each the R, G and B values were averaged followed by the calculation of the mean RGB value and error across them. Succeeding their conversion to XYZ and x, y color systems. The RGB values of each image with its corresponding error bar were plotted against time. Additionally, the x and y values were scattered on the CIE1931 color space to analyze the color change through time.

Amp. Resistant E. coli [3] = experiment: antibiotic susceptibility study in spiked human urine on the chip; assay type: cell-based, Escherichia coli
Protocol: For the spiked human sample experiment, human urine was centrifuged at 5000 rcf for 5 minutes to remove large particles. It was subsequently spiked with 5×10^5 CFU/mL and mixed with a solution of resazurin to a final concentration of 0.02%. No antibiotics were added for the control aliquots, 100 μg/mL ampicillin was added for resistant aliquots and 50 μg/mL Kanamycin was added for susceptible aliquots. The aliquots were incubated at 37° C. different periods starting from 0 minutes incubation till 60 minutes with a time step of 5 minutes.
FIGS. 11A-11F show the results of an antibiotic susceptibility study conducted using human urine spiked with Amp. Resistant E. coli to a final concentration of 5×10^5 CFU/mL. The study utilized 3 aliquot sets of control (no antibiotic), resistant (100 μg/mL Ampicillin), and susceptible (50 μg/mL Kanamycin). […] The trend is highlighted with a white arrow on the 2D chromaticity diagram in FIG. 11B. […] are web plots of the red, green, and blue values analyzed from the bright-field microscopy of the sets. […] Green values increased overtime in the control and resistant sets (88 to 122 for resistant and 82 to 117 for control) showing the change towards green color and indicating the reduction of resazurin to resorufin by viable bacterial cells. […] Resistant E. coli.

MRSA [4] = experiment: antibiotic susceptibility profiling by resazurin color change on the plasmonic microfluidic chip; assay type: cell-based, Staphylococcus aureus; details: 5×10^5 CFU/mL, 4 ug/mL Oxacillin; for color response over 1-hour incubation (resistant / susceptible): 1 ug/mL Ciprofloxacin
Protocol: as §1, §2
as §3, with “After incubation, the liquid in the Al chamber 103 was pushed towards the PCS chamber 105 sensing chamber while the bacteria was entrapped behind the micropillars 104p.” left out
(§4) To conveniently convert the microscopy results to the feasible CIE color gamut, each picture of the data set loaded to MATLAB was read as a 3 layer matrix, each pixel has 3 components, one per layer, corresponding to its R, G and B value. […] Following that, the mean across the collection was calculated. […]
(§5) All images were processed and analyzed through a MATLAB™ script which allowed the analysis of multiple images simultaneously. […]

Cipro. Resistant PA [5] = details: 60 minutes, 5×10^5 CFU/mL
Source text: as §3

Cipro. Resistant PA [6] = experiment: antibiotic susceptibility profiling by resazurin color change on the plasmonic microfluidic chip; assay type: cell-based, Pseudomonas aeruginosa; details: 5×10^5 CFU/mL; 2 ug/mL Ciprofloxacin, 4 ug/mL Gentamicin
Protocol: as §1
To rapidly detect the sample color change on the platform the reflectance spectra was measured using a Lambda 750 UV/Vis/NIR Spectrophotometer (PerkinElmer). The incident and collected light beams had normal incidence to the platform. […]
as §4, §5

Amp resistant E. coli = experiment: minimum inhibitory concentration (MIC) study with resazurin on the chip; details: for y-value: 60 minutes, 5×10^5 CFU/mL
MRSA [7] = experiment: as above; details: for y-value: 60 minutes, 5×10^5 CFU/mL
MRSA [8] = experiment: standard MIC assay using CLSI protocols; assay type: cell-based, Staphylococcus aureus; details: 96 well plate, overnight culture; 5×10^5 CFU/mL
Protocol: For the Clinical & Laboratory Standards Institute (CLSI) MIC protocol bacteria were streaked on LB agar overnight and resuspended in water aliquot. The aliquot was measured, and the bacteria concentration was adjusted to 10^6 CFU/mL in LB media. A 96 well plate with an antibiotic gradient from 128 μg/ml to 0.125 μg/ml in a 2-fold concentration dilution step was prepared with a positive control with no antibiotics. Next, the bacteria were introduced to each well of the 96 well plate for a final bacteria concentration of 5×10^5 CFU/mL. The well plates were cultured overnight.

[9] = 5×10^5 CFU/mL, 100 μg/mL Ampicillin, 50 μg/mL Kanamycin

CC1(C)S[C@@H]2[C@H](NC(=O)[C@H](N)c3ccccc3)C(=O)N2[C@H]1C(=O)O [Ampicillin]
color response (Amp. Resistant E. coli [1]): color change trend from dark blue at zero-minute incubation towards cyan | increase of y values (2D chromaticity diagram) over 1-hour incubation, control and resistant aliquots ([2]; 100 μg/mL Ampicillin, 5×10^5 CFU/mL): 0.19 to 0.33 | increase in green value of the 1-hour incubated aliquots compared to the zero minute incubation aliquot ([2]; 5×10^5 CFU/mL): 194% | increase in green value of the 1-hour incubated aliquots compared to the zero minute incubation aliquot ([2]; 10^2 CFU/mL): 142% | increase in green value of the 1-hour incubated aliquots compared to the zero minute incubation aliquot ([2]; 10^3 CFU/mL): 140% | increase in green value of the 1-hour incubated aliquots compared to the zero minute incubation aliquot ([2]; 50 CFU/mL): 131% | color response over 1-hour incubation (resistant / susceptible) [2, 9]: color change from initial dark blue to green; also recorded: color-change from navy blue to green | increase of green values over time (resistant set) (Amp. Resistant E. coli [3]; 100 μg/mL Ampicillin, 1-hour incubation): 88 to 122 | increase in the y-value over time (resistant aliquots) (Amp. Resistant E. coli [3]; 100 μg/mL Ampicillin, 5×10^5 CFU/mL, 1-hour incubation): 0.22 to 0.34 | color response over 1-hour incubation (Amp. Resistant E. coli [3]; [9]): color change trend from dark blue at zero-minute incubation towards cyan; also recorded: color-change from navy blue to green

O=C(O)c1cn(C2CC2)c2cc(N3CCNCC3)c(F)cc2c1=O [Ciprofloxacin]
color response over 1-hour incubation (resistant / susceptible) (MRSA [4]): constant dark blue color; also recorded: susceptible | y-value (Cipro. Resistant PA [5]; 8 μg/mL Ciprofloxacin): 0.38 | y-value (Cipro. Resistant PA [5]; 16 μg/mL Ciprofloxacin): 0.125 | y-value (Cipro. Resistant PA [5]; 32 μg/mL Ciprofloxacin): 0.175 | color response over 1-hour incubation (resistant / susceptible) (Cipro. Resistant PA [6]): color change from initial dark blue to green; also recorded: resistant

NC[C@H]1O[C@H](O[C@H]2[C@H](O)[C@@H](O[C@H]3O[C@H](CO)[C@@H](O)[C@H](N)[C@H]3O)[C@H](N)C[C@@H]2N)[C@H](O)[C@@H](O)[C@@H]1O [Kanamycin]
y-value (Amp resistant E. coli; 4 μg/mL kanamycin): 0.3 | y-value (Amp resistant E. coli; 8 μg/mL kanamycin): 0.125 | y-value (Amp resistant E. coli; 16 μg/mL kanamycin): 0.175 | MIC (Amp resistant E. coli; Escherichia coli, 1 h, read-out: minimum inhibitory concentration (MIC)): 8 µg/mL (≈ 16.5 µM) | constant green value throughout the 1-hour incubation ([2]; 5×10^5 CFU/mL): 49.26±5.32 | constant green value throughout the 1-hour incubation ([2]; 10^2 CFU/mL): 47.28±1.93 | constant green value throughout the 1-hour incubation ([2]; 10^3 CFU/mL): 48.12±3.21 | constant green value throughout the 1-hour incubation ([2]; 50 CFU/mL): 46.15±2.56 | constant blue value throughout the 1-hour incubation (Amp. Resistant E. coli [3]; 50 μg/mL Kanamycin): 138.7±5.3 | constant green value throughout the 1-hour incubation (Amp. Resistant E. coli [3]; 50 μg/mL Kanamycin): 76.8±4.5 | constant red value throughout the 1-hour incubation (Amp. Resistant E. coli [3]; 50 μg/mL Kanamycin): 56.6±4.7 | y-value, constant (susceptible set) (Amp. Resistant E. coli [3]; 50 μg/mL Kanamycin, 5×10^5 CFU/mL, 1-hour incubation): 0.205±0.025

Cc1onc(-c2ccccc2)c1C(=O)N[C@@H]1C(=O)N2[C@@H]1SC(C)(C)[C@@H]2C(=O)O [Oxacillin]
increase of y values (2D chromaticity diagram) over 1-hour incubation, control and resistant aliquots (MRSA [4]): 0.16 to 0.33 | color response over 1-hour incubation (resistant / susceptible) (MRSA [4]): color change from initial dark blue to green; also recorded: resistant | inhibition of MRSA metabolism (color change from purple to cyan) (MRSA [7]; 16 μg/mL Oxacillin dose): not enough to fully inhibit | y-value (MRSA [7]; 16 μg/mL Oxacillin): 0.3 | y-value (MRSA [7]; 32 μg/mL Oxacillin): 0.125 | y-value (MRSA [7]; 64 μg/mL Oxacillin): 0.13 | MIC (MRSA [7]; Staphylococcus aureus, MRSA, 1 h, read-out: minimum inhibitory concentration (MIC)): 32 µg/mL (≈ 79.7 µM) | category according to the CLSI breakpoints (MRSA [7]; from MIC): resistant | MIC by standard MIC assay using CLSI protocols, compared with chip MIC (MRSA [8]): confirmed the obtained MIC

Gentamicin
color response over 1-hour incubation (resistant / susceptible) (Cipro. Resistant PA [6]): constant dark blue color; also recorded: susceptible

Reference: US12590340B2, “Microfluidic plasmonic color reading chips and methods” (priority 2021, dated 2026)
